17 compounds from US20080027095A1, “Use Of 3-Substituted-2-(Diphenylmethy)-1-Azabicyclo[2.2.2]Octanes For Treating Mrg-X1 Receptor Mediated Diseases” (priority 2005, published 2008) can be followed below.

Where no end group is shown, it is not given here.

The target of data set [1] is T1, hMRG-X1 receptor (Homo sapiens, UniProt Q96LB2). The data set can be described thus: Receptor trafficking/internalization assay (InCell, Transfluor) in U2OS-hMRGX1-βarrGFP cells. The conditions noted are these: for IC50: 60 μM BAM15 (EC80), receptor trafficking. The class given is cell-based. The protocol:
(§1) U2OS-hMRGX1-βarrGFP stable cells were cultured in MEM supplemented with 10% heat-inactivated FBS, 4 mM L-Glutamine, 10 μg/ml Gentamicin, 10 mM HEPES, 0.4 mg/ml G-418, and 0.4 mg/ml Zeocin. Cells were plated on black/clear plastic bottom 384-well Corning plates at a density of 3000 cells/well in 20 μl growth medium and cultured overnight. DMSO, or sample compounds titrated in 75% DMSO were transferred from the compound source plate into the assay plate (200 nl/well). After 15 minutes incubation at 37° C. and 5% CO2, 5 μl of agonist (varying concentrations of BAM15 or EC80 concentration of 60 μM for compound titrations) was added and cells were incubated at 37° C. for 30 minutes. The fixing/nuclear staining solution was prepared in PBS as a 2× stock containing 4% paraformaldehyde and 2 μM DRAQ5 and 25 μl of this solution was added to the cells and incubated at room temperature in the dark for 30 minutes. The solution was then aspirated and replaced with PBS before confocal microscopy. Confocal microscopy was performed on the IN Cell Analyzer 3000 (GE Healthcare, Piscataway, N.J.).
All experiments with dose-response relationships were analyzed by a nonlinear regression software package from Graphpad (San Diego, Calif.). In the InCell 3000 imager, two excitation lines, 488 nm and 633 nm, were used to simultaneously excite βarrestin-GFP and the DRAQ5 nuclear stain, respectively. Confocal images from the IcCell 3000 were analyzed by the Raven software. Images of 200-300 cells from each well were captured and analyzed with GRN1 (granularity) algorithm using the Raven software of IN Cell Analyzer 3000. Individual cells or nuclei are first identified by thresholding the red channel (DRAQ5). From the nucleus, a rectangular bounding box was dilated out to the edge of the cell with a dilation setting of 15 pixels. […] This granularity algorithm was used to measure the number of fluorescent spots (Ngrains) based on fluorescent intensity and size of the grains and the average value from all the cells in a well were used to obtain the “Ngrain” value for the well. The same GRN1 algorithm was used to measure toxic affects or other false positives. Icyt value was used to measure the average intensity of the green fluorescence inside the bounding box as described above. Low Icyt values may indicate a sign of toxicity (resulting in either cell lyses or cells rounding up) displaying little or no GFP distribution in the cytoplasm and the plasma membrane, while high Icyt values may be due to the presence of fluorescent compound.

The target in data set [2] is T1, hMRG-X1 receptor. The data set can be described thus: Whole cell receptor binding assay with 3H-BAM in CHO-hMRG-X1-NFAT-BLA cells. The conditions noted are these: 10 nM 3H-BAM, 4° C. The procedure: CHO-hMRG-X1-NFAT-BLA cells were plated in a 24-well plate at 60,000 cells/well in 500 μl growth medium and incubated at 37° C. for 24 hours. The cells were washed once with 200 μl assay buffer (HANKS with 0.1% BSA and 20 mM HEPES, pH 7.5, refrigerated at 4° C.) using a vacuum aspirator. 90 μl assay buffer was added to each well followed by an addition of 0.2 μl/well diluted compounds (500X stock in DMSO) and incubated at 4° C. for 5 minutes. […] of ^3H-BAM peptide was added to each well (10 nM final concentration; ˜75,000 dpm) and the assay plate was incubated at 4° C. for 30 minutes with brief gentle shaking every 5 minutes. The assay plate was then washed rapidly with 2X 200 μl assay buffer (approximately 4 to 5 seconds for both washes). All wash steps were performed in a cold room (4° C.). To lyse the cells, 200 μl of 0.2 M NaOH was added to each well and incubate at room temperature for 30 minutes. The cell lysate in each well was transferred to a scintillation vial followed by addition of 3 ml scintillation solution (UltimaGold, PerkinElmer) and counted in a scintillation counter (1 minute per vial).

For data set [3], the target named is T1, hMRG-X1 receptor. The experiment in a line: Beta-lactamase (BLA) reporter-gene assay in CHO-hMRG-X1-NFAT/BLA cells. The class given is cell-based. The settings on record: for IC50: antagonism of BAM15-induced BLA response. The procedure:
BLA assays in 384-well plates were performed essentially as described previously (11). For miniaturization of the BLA assay into 3456-well format, cells were serum-starved for ˜18 hours in assay medium (11) the day before the assay. On the day of the assay, cells were dissociated with enzyme-free dissociation buffer, re-suspended into assay medium and dispensed into a 3456-well nanoplate (3000 cells in 1.4 μl/well) using the FRD (Aurora Discovery, San Diego, Calif.) (13). Rest of the BLA assay was conducted essentially as described earlier (13). The cellular response was also observed by fluorescence microscopy with UV illumination. The data are plotted as a ratio of the emissions 460 nm/530 nm. Experimental data points are represented as median±standard deviation of 4-115 replicates.

For data set [4], the target named is T1, hMRG-X1 receptor. The data set can be described thus: Intracellular Ca2+ (FLIPR) assay in CHO-hMRG-X1-NFAT/Bla cells. The class given is cell-based. The conditions noted are these: inhibition of BAM15-induced i[Ca2+] response.
Experimental: Intracellular Ca^2+ measurements were performed essentially as described (14, 15). Modifications include 8000 cells/well of the CHO-hMRG-X1-NFAT/Bla cells in 20 μgrowth medium plated in 384-well plates 24 hours before assay. Cells were loaded with 20 μl of 2X calcium probe and fluorescent quencher. Agonist was prepared as a 4× stock in HBSS buffer and added to the assay plate by the FLIPR384 pipetter (13.3 μl/well). Experimental data points are represented as median±standard deviation of 4 replicates.
Data set [5] concerns U2OS-hMRGX1-βarrGFP cells. The data set can be described thus: Toxicity algorithm (Icyt) on the InCell imaging assay. In kind it is cell-based. The settings on record: even at 100 μM. The procedure: as §1, with “The solution was then aspirated and replaced with PBS before confocal microscopy. Confocal microscopy was performed on the IN Cell Analyzer 3000 (GE Healthcare, Piscataway, N.J.).” left out
All experiments with dose-response relationships were analyzed by a nonlinear regression software package from Graphpad (San Diego, Calif.). […] Confocal images from the IcCell 3000 were analyzed by the Raven software. Images of 200-300 cells from each well were captured and analyzed with GRN1 (granularity) algorithm using the Raven software of IN Cell Analyzer 3000. […] Icyt value was used to measure the average intensity of the green fluorescence inside the bounding box as described above. […]

Data set [6] concerns the target T1, hMRG-X1 receptor. The data set can be described thus: Whole cell receptor binding assay with 3H-BAM in CHO-hMRG-X1-NFAT-BLA cells. The settings on record: [3H]-BAM15.

T1 sequence (Q96LB2 whole entry): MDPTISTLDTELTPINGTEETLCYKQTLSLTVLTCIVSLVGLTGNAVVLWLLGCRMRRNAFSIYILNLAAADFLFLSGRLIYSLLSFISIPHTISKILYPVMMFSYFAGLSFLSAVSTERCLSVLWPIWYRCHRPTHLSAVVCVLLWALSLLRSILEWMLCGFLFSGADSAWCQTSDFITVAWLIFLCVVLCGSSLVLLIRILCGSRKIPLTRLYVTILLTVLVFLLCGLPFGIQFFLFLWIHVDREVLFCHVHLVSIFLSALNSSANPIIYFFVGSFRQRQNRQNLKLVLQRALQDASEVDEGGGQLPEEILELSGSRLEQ

Turning to `O=C(Nc1ccccc1Cl)OC1C2CCN(CC2)C1C(c1ccccc1)c1ccccc1` (centres unmarked) [Compound 6], the IC50 is 3.6 µM on hMRG-X1 receptor [1] (IC50 InCell), 607 nM on hMRG-X1 receptor [2] (IC50 Binding), 140 nM on hMRG-X1 receptor [3] (IC50 BLA) and 751 nM on hMRG-X1 receptor [4] (IC50 FLIPR).

Turning to `COc1ccc(C(=O)OC2C3CCN(CC3)C2C(c2ccccc2)c2ccccc2)cc1OC` (centres unmarked) [Compound 2], the figures for the IC50 against hMRG-X1 receptor [1] (IC50 InCell), against hMRG-X1 receptor [3] (IC50 BLA) and at hMRG-X1 receptor [4] (IC50 FLIPR) were 2.8 µM, 64 nM and 157 nM, respectively.

Regarding `FC(F)(F)c1ccccc1CNC1C2CCN(CC2)C1C(c1ccccc1)c1ccccc1` (centres unmarked) [Compound 11], the IC50 on hMRG-X1 receptor [1] (read-out: IC50 InCell) came out at 5.2 µM; at hMRG-X1 receptor [2] (read-out: IC50 Binding), 1290 nM; at hMRG-X1 receptor [3] (read-out: IC50 BLA), 244 nM; at hMRG-X1 receptor [4] (read-out: IC50 FLIPR), 460 nM.

Consider `O=C(Nc1cccc2ccccc12)OC1C2CCN(CC2)C1C(c1ccccc1)c1ccccc1` (centres unmarked) [Compound 5], for which the IC50 at hMRG-X1 receptor [1] (IC50 InCell) was 2.2 µM; on hMRG-X1 receptor [2] (IC50 Binding) it was 1220 nM; against hMRG-X1 receptor [3] (IC50 BLA), 124 nM; against hMRG-X1 receptor [4] (IC50 FLIPR), 904 nM.

Consider `O=C(Nc1cccc([N+](=O)[O-])c1)OC1C2CCN(CC2)C1C(c1ccccc1)c1ccccc1` (centres unmarked) [Compound 13], for which the IC50 at hMRG-X1 receptor [1] (IC50 InCell) was 6.3 µM; at hMRG-X1 receptor [2] (IC50 Binding), 1850 nM; at hMRG-X1 receptor [3] (IC50 BLA), 290 nM; against hMRG-X1 receptor [4] (IC50 FLIPR) it was 1300 nM.

`OC(C=C1C2CCN(CC2)C1C(c1ccccc1)c1ccccc1)c1cccc(C(F)(F)F)c1` (centres unmarked) [Compound 4]: the IC50 on hMRG-X1 receptor [1] (read-out: IC50 InCell) amounted to 6.78 µM; on hMRG-X1 receptor [3] (read-out: IC50 BLA) it was 90 nM; at hMRG-X1 receptor [4] (read-out: IC50 FLIPR), 209 nM.

In the case of `COc1ccccc1C(=O)C=C1C2CCN(CC2)C1C(c1ccccc1)c1ccccc1` (centres unmarked) [Compound 1], the “toxicity by toxicity algorithm on the InCell imaging assay” value in data set [5] is recorded as “minimal toxicity”.

For the compound `N#Cc1cccc(COC2C3CCN(CC3)C2C(c2ccccc2)c2ccccc2)c1` (centres unmarked) [Compound 10], the half-inhibitory concentration (IC50) was 10 µM on hMRG-X1 receptor [1] (read-out: IC50 InCell), 209 nM on hMRG-X1 receptor [3] (read-out: IC50 BLA) and 492 nM at hMRG-X1 receptor [4] (read-out: IC50 FLIPR).

Take `N#Cc1ccc(COC2C3CCN(CC3)C2C(c2ccccc2)c2ccccc2)cc1` (centres unmarked) [Compound 16]: the IC50 is 1850 nM on hMRG-X1 receptor [2] (read-out: IC50 Binding) and 556 nM on hMRG-X1 receptor [3] (read-out: IC50 BLA).

Turning to `COc1ccccc1NC(=S)NC1C2CCN(CC2)C1C(c1ccccc1)c1ccccc1` (centres unmarked) [Compound 15], the IC50 stood at 13.5 µM on hMRG-X1 receptor [1] (read-out: IC50 InCell), 2510 nM at hMRG-X1 receptor [2] (read-out: IC50 Binding), 418 nM on hMRG-X1 receptor [3] (read-out: IC50 BLA) and 9800 nM at hMRG-X1 receptor [4] (read-out: IC50 FLIPR).

“VGRPEWWMDYQKRYG [BAM15, reference compound]”: the EC50 is approximately 14 µM at hMRG-X1 receptor [1] (BAM15-induced, 30 minutes, FIG. 4, read-out: EC50 of pit phenotype (receptor internalization)); 20 nM on hMRG-X1 receptor [3] (1.8 μl assay in 3456-well plates, FIG. 3A, read-out: EC50, BLA assay miniaturized); 40 to 300 nM on hMRG-X1 receptor [3] (384-well, across 5 clones, FIG. 2B, read-out: EC50s for BAM15, BLA assay). Moreover, on hMRG-X1 receptor [6], the Kd amounted to 80 nM.

As to `C(Cc1ccccc1)=C1C2CCN(CC2)C1C(c1ccccc1)c1ccccc1` (centres unmarked) [Compound 7], the concentration for half-maximal inhibition (IC50) stood at 2.2 µM at hMRG-X1 receptor [1] (read-out: IC50 InCell), 1430 nM on hMRG-X1 receptor [2] (read-out: IC50 Binding), 163 nM on hMRG-X1 receptor [3] (read-out: IC50 BLA) and 220 nM on hMRG-X1 receptor [4] (read-out: IC50 FLIPR).

As to `O=C(OC1C2CCN(CC2)C1C(c1ccccc1)c1ccccc1)c1ccccc1C(F)(F)F` (centres unmarked) [Compound 12], the IC50 turned out to be 8.8 µM at hMRG-X1 receptor [1] (IC50 InCell), 2400 nM at hMRG-X1 receptor [2] (IC50 Binding), 252 nM on hMRG-X1 receptor [3] (IC50 BLA) and 3300 nM against hMRG-X1 receptor [4] (IC50 FLIPR).

As to `OC(C=C1C2CCN(CC2)C1C(c1ccccc1)c1ccccc1)c1ccc(F)cc1` (centres unmarked) [Compound 8], the IC50 at hMRG-X1 receptor [1] (read-out: IC50 InCell) turned out to be 4.8 µM; on hMRG-X1 receptor [2] (read-out: IC50 Binding), 630 nM; at hMRG-X1 receptor [3] (read-out: IC50 BLA), 165 nM; at hMRG-X1 receptor [4] (read-out: IC50 FLIPR) it was 334 nM.

On to `O=C(Nc1ccccc1Cl)OC1C2CCN(CC2)C1C(c1ccccc1)c1ccccc1` (centres unmarked) [Compound 14], for which the IC50 stood at 29 µM against hMRG-X1 receptor [1] (IC50 InCell), 1180 nM on hMRG-X1 receptor [2] (IC50 Binding), 375 nM against hMRG-X1 receptor [3] (IC50 BLA) and 2700 nM at hMRG-X1 receptor [4] (IC50 FLIPR).

On to `Cc1cc(C)cc(C(O)C=C2C3CCN(CC3)C2C(c2ccccc2)c2ccccc2)c1` (centres unmarked) [Compound 9], for which the IC50 at hMRG-X1 receptor [1] (read-out: IC50 InCell) was 5.2 µM; on hMRG-X1 receptor [3] (read-out: IC50 BLA), 200 nM; on hMRG-X1 receptor [4] (read-out: IC50 FLIPR), 1500 nM.

On to `COc1ccccc1C(O)C=C1C2CCN(CC2)C1C(c1ccccc1)c1ccccc1` (centres unmarked) [Compound 3], for which the IC50 on hMRG-X1 receptor [1] (read-out: IC50 InCell) was 0.55 µM; at hMRG-X1 receptor [2] (read-out: IC50 Binding), 182 nM; on hMRG-X1 receptor [3] (read-out: IC50 BLA), 80 nM; at hMRG-X1 receptor [4] (read-out: IC50 FLIPR), 187 nM.

The IC50 is the midpoint of a concentration-inhibition curve. The Kd is a measure of binding affinity in units of concentration. A low value points to a tighter complex.
